Data taken from ChEMBL document CHEMBL1152231, “Discovery of small molecule agonists for the bombesin receptor subtype 3 (BRS-3) based on an omeprazole lead” (Bioorg Med Chem Lett, 2008).
Square brackets hold non-standard residues; d marks the D form. Peptide text beside a SMILES is read from it. Nle = CCCC[C@H](N)C(=O)O; βAla = NCCC(=O)O

Assays:
[1] = biological target: T1, Bombesin receptor subtype-3 (Homo sapiens) (UniProt P32247); test: Agonist activity at recombinant BRS-3 receptor expressed in baculovirus-transduced HEK293 cells assessed as maximum response of intracellular calcium mobilization by FLIPR assay relative to D-Phe-Gln-Trp-Ala-Val-beta-Ala-His-Phe-Nle-NH2; type: functional
T1 sequence (whole entry): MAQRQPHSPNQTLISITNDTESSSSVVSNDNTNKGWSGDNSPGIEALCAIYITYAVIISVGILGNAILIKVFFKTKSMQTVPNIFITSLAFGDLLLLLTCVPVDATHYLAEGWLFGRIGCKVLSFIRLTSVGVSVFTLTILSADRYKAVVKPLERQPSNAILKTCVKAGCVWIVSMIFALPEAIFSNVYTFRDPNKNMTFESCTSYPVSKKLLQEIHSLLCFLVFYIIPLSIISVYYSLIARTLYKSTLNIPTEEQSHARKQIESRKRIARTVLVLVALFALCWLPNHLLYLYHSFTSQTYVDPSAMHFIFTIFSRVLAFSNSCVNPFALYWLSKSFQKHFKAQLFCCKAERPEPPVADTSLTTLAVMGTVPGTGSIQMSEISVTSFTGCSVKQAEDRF

[2] = biological target: T2, Bombesin receptor subtype-3 (Homo sapiens, UniProt P32247); test: Agonist activity at recombinant BRS-3 receptor expressed in baculovirus-transduced HEK293 cells assessed as intracellular calcium mobilization by FLIPR assay; type: functional
T2 sequence (P32247 whole entry): T1 sequence (whole entry)

[3] = biological target: T3, Neuromedin-B receptor (Homo sapiens, UniProt P28336); test: Agonist activity at recombinant neuromedin B receptor expressed in baculovirus-transduced HEK293 cells assessed as intracellular calcium mobilization by FLIPR assay; type: functional
T3 sequence (P28336 whole entry): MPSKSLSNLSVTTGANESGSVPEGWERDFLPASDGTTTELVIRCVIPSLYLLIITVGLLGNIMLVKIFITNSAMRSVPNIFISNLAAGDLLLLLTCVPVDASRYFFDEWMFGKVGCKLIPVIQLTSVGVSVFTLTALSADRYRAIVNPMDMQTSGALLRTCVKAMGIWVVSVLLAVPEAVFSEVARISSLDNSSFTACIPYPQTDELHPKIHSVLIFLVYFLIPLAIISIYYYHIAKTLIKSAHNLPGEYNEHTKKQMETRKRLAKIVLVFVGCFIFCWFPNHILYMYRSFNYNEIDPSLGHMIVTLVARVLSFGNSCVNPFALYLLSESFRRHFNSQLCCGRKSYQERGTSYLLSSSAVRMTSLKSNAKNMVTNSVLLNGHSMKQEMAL

[4] = biological target: T2, Bombesin receptor subtype-3; test: Binding affinity to BRS-3 receptor
[5] = biological target: T4, Gastrin-releasing peptide receptor (Homo sapiens, UniProt P30550); test: Binding affinity to gastrin releasing peptide receptor
T4 sequence (P30550 whole entry): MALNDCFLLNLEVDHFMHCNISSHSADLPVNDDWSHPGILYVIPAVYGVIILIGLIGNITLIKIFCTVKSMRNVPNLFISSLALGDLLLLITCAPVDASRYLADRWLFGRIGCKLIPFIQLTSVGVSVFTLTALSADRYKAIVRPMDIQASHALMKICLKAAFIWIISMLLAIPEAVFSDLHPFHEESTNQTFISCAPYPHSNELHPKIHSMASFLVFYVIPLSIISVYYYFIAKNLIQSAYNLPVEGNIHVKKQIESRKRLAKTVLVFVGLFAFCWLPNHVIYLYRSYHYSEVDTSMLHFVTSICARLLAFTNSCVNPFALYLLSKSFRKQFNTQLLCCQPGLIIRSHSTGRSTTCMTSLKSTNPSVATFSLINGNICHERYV

[6] = biological target: T3, Neuromedin-B receptor; test: Binding affinity to neuromedin B receptor
[7] = biological target: T4, Gastrin-releasing peptide receptor; test: Agonist activity at recombinant gastrin releasing peptide receptor expressed in baculovirus-transduced HEK293 cells assessed as intracellular calcium mobilization by FLIPR assay; type: functional
[8] = Volume of distribution at steady state in iv dosed rat; type: ADME, organism-based; settings: in vivo, read-out: Vdss
[9] = Clearance in iv dosed rat; type: ADME, organism-based; settings: in vivo
[10] = Half life in iv dosed rat; type: ADME, organism-based; settings: in vivo

Q: Which %max [1] does the source give for `COc1cc(CSc2nc3ccc(OC)cc3[nH]2)cc(OC)c1` here?
A: 68%

Q: What about the EC50 [2] of the same molecule?
A: 1600 nM

Q: With `COc1ccc2nc(SCc3n[nH]c4ccccc34)[nH]c2c1` as the molecule, how does the EC50 [2] read?
A: > 32000 nM

Q: For `Clc1ccc2nc(COc3cc4c(cc3Cl)OCO4)[nH]c2c1`, which %max [1] is on record?
A: 59%

Q: What about the EC50 [2] of the same molecule?
A: 570 nM

Q: Which EC50 [2] does the source give for `COc1ccc2nc(CCc3cc4c(cc3Cl)OCO4)oc2c1` here?
A: > 32000 nM

Q: For `COc1ccc2nc(SCc3ccc(F)c(F)c3)[nH]c2c1`, which EC50 [2] is on record?
A: > 32000 nM

Q: For `COc1ccc2nc(SCc3ccncc3)[nH]c2c1`, which EC50 [2] is on record?
A: > 32000 nM

Q: With `COc1ccc2nc(NCc3cc4c(cc3Cl)OCO4)[nH]c2c1` as the molecule, how does the EC50 [2] read?
A: > 32000 nM

Q: For `COc1ccc2nc(SCc3ccc4ccccc4c3)[nH]c2c1`, which EC50 [2] is on record?
A: > 32000 nM

Q: For `Clc1cc2c(cc1OCc1nc3ccc(Oc4ccccc4)cc3[nH]1)OCO2`, which EC50 [2] is on record?
A: > 32000 nM

Q: With `COc1ccc2sc(CCc3cc4c(cc3Cl)OCO4)nc2c1` as the molecule, how does the EC50 [2] read?
A: > 32000 nM

Q: Which %max [1] does the source give for `COc1ccc2nc(C(C)Cc3cc4c(cc3Cl)OCO4)[nH]c2c1` (stereo not given) here?
A: 83%

Q: And the EC50 [2]?
A: 350 nM

Q: For `COc1ccc2nc(NC(=O)c3cc4c(cc3Cl)OCO4)[nH]c2c1`, which EC50 [2] is on record?
A: > 32000 nM

Q: For `FC(F)(F)c1ccc2nc(COc3cc4c(cc3Cl)OCO4)[nH]c2c1`, which %max [1] is on record?
A: 69%

Q: What about the EC50 [2] of the same molecule?
A: 240 nM

Q: With `CCCC[C@H](NC(=O)[C@H](Cc1ccccc1)NC(=O)[C@H](Cc1c[nH]cn1)NC(=O)CCNC(=O)[C@@H](NC(=O)[C@H](C)NC(=O)[C@H](Cc1c[nH]c2ccccc12)NC(=O)[C@H](CCC(N)=O)NC(=O)[C@H](N)Cc1ccccc1)C(C)C)C(N)=O` (H-[dF]QWAV[βAla]HF[Nle]-NH2) as the molecule, how does the EC50 [3] read?
A: 0.55 nM

Q: And the Ki [4]?
A: 0.36 nM

Q: And the Ki [5]?
A: 0.99 nM

Q: What about the Ki [6] of the same molecule?
A: 8.9 nM

Q: What about the EC50 [2] of the same molecule?
A: 3.9 nM

Q: And the EC50 [7]?
A: 0.06 nM

Q: Which %max [1] does the source give for `COc1ccc2[nH]c([S+]([O-])Cc3ncc(C)c(OC)c3C)nc2c1` (stereo not given) [OMEPRAZOLE] here?
A: 27%

Q: And the EC50 [2]?
A: 14000 nM

Q: Which EC50 [2] does the source give for `COc1ccc2nc(/C=C/c3cc4c(cc3Cl)OCO4)[nH]c2c1` here?
A: > 32000 nM

Q: With `COc1ccc2nc(SCc3cc4c(cc3Cl)OCO4)[nH]c2c1` as the molecule, how does the %max [1] read?
A: 67%

Q: And the EC50 [2]?
A: 380 nM

Q: With `COc1ccc2oc(CCc3cc4c(cc3Cl)OCO4)nc2c1` as the molecule, how does the EC50 [2] read?
A: > 32000 nM

Q: Which EC50 [2] does the source give for `Cc1cc2nc(COc3cc4c(cc3Cl)OCO4)[nH]c2cc1Cl` here?
A: > 32000 nM

Q: With `COc1ccc2nc(COc3cc4c(cc3Cl)OCO4)[nH]c2c1` as the molecule, how does the %max [1] read?
A: 71%

Q: And the Vd [8]?
A: 1.2 L/kg

Q: What about the clearance [9] of the same molecule?
A: 61 mL/min/kg

Q: And the half-life [10]?
A: 30 min

Q: What about the EC50 [2] of the same molecule?
A: 510 nM

Q: For `COc1ccc2[nH]c(SCc3ncc(C)c(OC)c3C)nc2c1` [UFIPRAZOLE], which %max [1] is on record?
A: 64%

Q: What about the EC50 [2] of the same molecule?
A: 3900 nM

Q: Which EC50 [2] does the source give for `COc1ccc2nc(CCc3cc4c(cc3Cl)OCO4)sc2c1` here?
A: > 32000 nM

Q: Which %max [1] does the source give for `COc1ccc2nc(CCc3cc4c(cc3Cl)OCO4)[nH]c2c1` here?
A: 82%

Q: And the EC50 [2]?
A: 210 nM
